Laboratory results as given in patent US20170001956A1, “HYDROCARBYL CARBOXYBETAINE AND METHOD FOR PREVENTING HOFMANN ELIMINATION IN ALKALINE ENVIRONMENT” (NATIONAL CHUNG CHENG UNIVERSITY, priority 2015, published 2017).

Test system: Staphylococcus aureus
Settings: treated with 1M NaOH; compared to CB treated with 1M NaOH (CB-NaOH); FIG. 7

Compound: CC(C[N+](C)(C)CCSSCC[N+](C)(C)CC(C)C(=O)O)C(=O)O (stereo not drawn) [α-mCB, carboxy-alpha-methyl-betaine disulfide]
- adsorption resistance against the biofouling of S. aureus: better adsorption resistance
